Data published in patent US11173177B2, “Compounds for treatment of lipoprotein metabolism disorders” (Aarhus Universitet, priority 2016, dated 2021).
pIC50: −log10 of the molar value.

How the values were obtained:
[1] = system: PCSK9; assay: Heparin-sepharose binding assay (free PCSK9 by ELISA); parameters: species or system human; details: 500-200 μg/ml, PCSK9 1 μg/ml, over night 4° C.
Method: Compound (X) inhibition of PCSK9 binding to Heparin/Heparan sulfate was tested in a Heparin-sepharose binding assay. Heparin-sepharose beads (2 μl) were incubated with PCSK9 (1 μg/ml) with increasing concentrations of compound (X) (0-500 μg/ml) in a total volume of 150 μl 10 mM NaH2PO4. After over night rotation at 4° C., beads were pelleted and the concentration of non-precipitated PCSK9 (free PCSK9) in supernatant was evaluated by ELISA. The concentration of free PCSK9 in each sample was normalised to the PCSK9 level in a sample without Heparin-sepharose beads (input control). As positive control was included a sample with soluble heparin (5 mg/ml) (FIG. 16 A).
Sucrose octasulfate (FIG. 21A) inhibition of PCSK9 binding to Heparin/Heparan sulfate was tested in a Heparin-sepharose binding assay. Heparin-sepharose beads (2 μl) were incubated with PCSK9 (1 μg/ml) and increasing concentrations of sucrose octasulfate (0-500 μg/ml) in a total volume of 150 μl 10 mM NaH2PO4. After over night rotation at 4° C., beads were pelleted and the concentration of non-precipitated PCSK9 (free PCSK9) in supernatant was evaluated by ELISA). Percent free PCSK9 was calculated with respect to the PCSK9 concentration in a sample without Heparin-sepharose beads (input control) (FIG. 21B).

[2] = system: liver LDLR; assay: Liver LDLR levels in mice after intravenous PCSK9 injection (Western blot); assay type: in vivo; details: inhibitor i.v. 60 min prior PCSK9 (10 μg); compound (X) 0.13 mg/kg, Evolocumab 8 mg/kg; PCSK9 without inhibitor: 50% decrease
Method: To test the effect of enzymatic removal of heparan sulfate GAGs on PCSK9 activity in vivo 10-12 week-old male BALB6/cJRj mice were infused with heparinase I (30 U) administered through a tail vein catheter 5 min prior injection of PCSK9 (10 μg). In control mice the heparinase injection and/or the PCSK9 injection were replaced with an injection of 0.9% saline. During heparinase infusion, mice were lightly anaesthetized with isoflurane continuously administered through a mask.
Mice (BALB6/cJRj) were subjected to a single intravenous administration (tail vein) of 10 μg human recombinant PCSK9 alone or in combination with heparin (50 U). One hour post injection mice were sacrificed and liver tissues were collected.
Mice (BALB6/cJRj) were subjected to a single intravenous (tail vein) administration of 3.2 μg compound (X) 60 minutes prior injection with PCSK9 (10 μg). PCSK9 induced degradation of liver LDLR was assessed 60 min post PCSK9 injection by Western blotting and quantified by densitometry (FIG. 16 C). Control mice were injected with NaCl or control inhibitor Evolocumab (200 μg), commercially available PCSK9 inhibitory monoclonal antibody (Amgen). LDLR levels were calculated with respect to LDLR level in mice injected with NaCl alone.

[3] = biological target: PCSK9; assay: BIACORE interference assay, PCSK9 binding to heparin-albumin sensor chip; parameters: species or system human; details: 100 nM PCSK9 preincubated with 0 nM-10 μM compound; read-out: estimated IC50, inhibition of PCSK9 binding to heparin-albumin sensor chip
Method: BIACORE analysis using sensor chips coupled with either albumin (Sigma A4503) or heparin-albumin (Sigma H0403) were used to evaluate the interaction between PCSK9 and heparin. […] An interference assay using BIACORE analysis was implemented to assess the binding between compound (X) and PCSK9. Solutions of 100 nM PCSK9 was incubated with increasing concentrations of compound (X) (0 nM, 10 nM, 100 nM, 1 μM and 10 μM), the solutions were then infused over the sensor chip coupled with heparin-albumin.

[4] = system: LDLR in HepG2 cells; assay: LDLR levels in HepG2 cells by Western blotting and densitometry; assay type: cell-based, human; details: 0-200 μg/ml, 24 h
Method: In the heparin mimetic class of modified polysaccharides compounds dextran sulfate (FIG. 9 A-B) and pentosan (FIG. 9 D-E) were tested in a HepG2 based in vitro cell assay. After overnight incubation LDLR levels were evaluated by Western blotting showing a concentration dependent increase of LDLR upon treatment with dextran sulfate (0-200 μg/ml) with up to 3-fold up regulation of LDLR.
Control cells were incubated without additives (negative control) or 500 μg/ml heparin (positive control). LDLR levels were calculated with respect to the level found in lysate of HepG2 cells incubated without additives.
HepG2 cells were incubated with 0-200 μg/ml of heterogeneously sulfated hexamer or 18-mer oligosaccharides containing on average 1,3 sulfates per disaccharide. After over night incubation cells were harvested and the cellular level of LDLR was analyzed by Western blotting (FIG. 17 A) and quantified by densitometry (FIG. 17 B).

CC(C)CCC[C@@H](C)[C@H]1CC[C@H]2[C@@H]3CC[C@H]4C[C@@H](O[C@@H]5O[C@H](COS(=O)(=O)[O-])[C@@H](O[C@H]6O[C@H](COS(=O)(=O)[O-])[C@@H](O[C@H]7O[C@H](COS(=O)(=O)[O-])[C@@H](O[C@H]8O[C@H](COS(=O)(=O)[O-])[C@@H](OS(=O)(=O)[O-])[C@H](OS(=O)(=O)[O-])[C@H]8OS(=O)(=O)[O-])[C@H](OS(=O)(=O)[O-])[C@H]7OS(=O)(=O)[O-])[C@H](OS(=O)(=O)[O-])[C@H]6OS(=O)(=O)[O-])[C@H](OS(=O)(=O)[O-])[C@H]5OS(=O)(=O)[O-])CC[C@]4(C)[C@H]3CC[C@]12C.[Na+].[Na+].[Na+].[Na+].[Na+].[Na+].[Na+].[Na+].[Na+].[Na+].[Na+].[Na+].[Na+] [compound (X), 3β-cholestanyl 2,3,4,6-tetra-O-sulfo-α-D-glucopyranosyl-(1→4)-2,3,6-tri-O-sulfo-α-D-glucopyranosyl-(1→4)-2,3,6-tri-O-sulfo-α-Dglucopyranosyl-(1→4)-2,3,6-tri-O-sulfo-β-D-glucopyranoside tridecasodium salt]
inhibition of PCSK9 interaction with Heparin-sepharose [1]: completely inhibited
decrease of liver LDLR level after PCSK9 injection [2]: no decrease was observed
pIC50 [3]: ~7.30
LDLR levels with respect to cells incubated without additives [4]: up to 12 times
LDLR levels, concentration dependence [4]: concentration dependent increased levels of LDLR
